From article PMC6563076 (2019)

What was measured:
[1] = tested on: F21T (DNA, G4) GGGTTAGGGTTAGGGTTAGGG; experiment: FRET melting; conditions: 1 μM ligand, 200 nM DNA, 10 mM Li cacodylate, ΔT1/2 used as ΔTm
[2] = tested on: FmycT (DNA, G4) TTGAGGGTGGGTAGGGTGGGTAA; experiment: FRET melting; conditions: 1 mM KCl, 99 mM LiCl; 1 μM ligand, 200 nM DNA, 10 mM Li cacodylate; ΔT1/2 used as ΔTm
[3] = tested on: F10T (DNA, hairpin, hexaethylene glycol (HEG) linker between 10 and 11) TATAGCTATATATAGCTATA; experiment: FRET melting; conditions: 10 mM KCl, 90 mM LiCl; 1 μM ligand, 200 nM DNA, 10 mM Li cacodylate; ΔT1/2 used as ΔTm
[4] = tested on: telo22 (DNA, G4) AGGGTTAGGGTTAGGGTTAGGG; experiment: CD titration; conditions: Na+ (100 mM sodium phosphate); pH 7.4; conformational change similar to telo23
[5] = tested on: telo23 (DNA, G4) TAGGGTTAGGGTTAGGGTTAGGG; experiment: 1H NMR; conditions: Na+ (25 mM sodium phosphate, 70 mM NaCl); pH 7.0, 298 K, 175 µM DNA, 2 equivalents ligand; imino signals lost
[6] = tested on: telo23 (DNA, G4) TAGGGTTAGGGTTAGGGTTAGGG; experiment: CD titration; conditions: pH 7.4, 20 °C, 4.22 µM DNA

| ΔTm ([1]; 10 mM KCl, 90 mM LiCl) [°C] | ΔTm ([1]; 100 mM NaCl) [°C] | ΔTm [2] [°C] | ΔTm [3] [°C] | binding [4] | binding [5] | binding ([6]; K+ (100 mM potassium phosphate), no conformational change, ICD seen) | binding ([6]; Na+ (100 mM sodium phosphate), ligand unfolds the G4) | Structure (SMILES) |
| --- | --- | --- | --- | --- | --- | --- | --- | --- |
| 9.7 ± 0.5 | 5.4 ± 1.0 | 5.1 ± 1.4 | 0.1 ± 0.1 |  |  |  |  | C[n+]1ccc(-c2ccc3c(c2)/C(=C2/CCc4ccc(-c5cc[n+](C)cc5)cc42)CC3)cc1 |
| 21.4±0.3 | 11.8±0.6 | 15.8±0.8 | 0.8±0.2 | yes | yes | yes | yes | C[n+]1ccc(-c2ccc3c(c2)/C(=C2\CCc4ccc(-c5cc[n+](C)cc5)cc42)CC3)cc1 |
